Test results taken from US10294212B2 (CURADEV PHARMA PRIVATE LTD., priority 2013, dated 2019).
Where two headings read alike, the source gives them in different places.

Legend:
[1] = biological target: Human indoleamine 2,3-dioxygenase-2 (hIDO2) (Homo sapiens (Human), UniProt Q6ZQW0); experiment: In-vitro IDO2 enzyme assay; assay type: biochemical
From the text: Human indoleamine 2,3-dioxygenase-2 (hIDO2) catalyzes the oxidative cleavage of the pyrrole ring of the indole nucleus of tryptophan to yield N-formylkynurenine which can be converted to kynurenine (KYN) by deformylation. hIDO2 with an C-terminal His tag (Sino Biological Inc (China)) was expressed in E. coli cells and the protein was purified using standard methods well known in the art. Unless otherwise stated, all materials were procured from Sigma Aldrich, Mo., USA.
The assay monitoring the conversion of L-tryptophan to KYN was carried out as follows. hIDO2 (160 nM) was incubated with tryptophan (5000 04) in the presence of ascorbic acid (20 mM), methylene blue (10 04) and catalase (100 μg/mL) in potassium phosphate buffer (100 mM; pH 7.5) at 37 degrees C. for 30 min. The reaction was terminated with 30% trichloroacetic acid (TCA) and further incubated at 65 degrees C. for 15 min to fully convert N-formylkynurenine to KYN. The reaction mixture was then centrifuged to remove sediments, and the KYN in the supernatant was measured by UV-visible absorption spectroscopy at 360 nm using a Waters HPLC system fitted with a C-18 column or by LC/MS/MS (C. J. D Austin et. Al, Amino Acid 2009, 565-578).
Percent inhibition at each concentration of test compounds was determined by determining the decrease in KYN with reference to the reaction control with 1% DMSO vehicle. Data were analyzed using nonlinear regression to generate IC50 values using Graph Pad Prism® 5. Compounds 2 and 184 were tested as described above.

[2] = tested on: plasma and tumor tissue KYN; experiment: Tumor penetration: KYN levels in tumor and plasma, CT26/Balb/C tumor model; assay type: in vivo, Balb/c mice; conditions: 50 mg/kg oral BID 4 days, vs vehicle; for plasma KYN levels reduced: 2 hours post-dosing
Description: i. Tumor penetration in mice: Tumor penetration of test compounds and KYN levels in tumor and plasma of treated animals were determined in a syngeneic CT26/Balb/C tumor model. Briefly, three to four tumor bearing Balb/c mice (tumor size=150-200 mm^3) were dosed twice a day orally for 4 days with test compound (for e.g., compound 2) at 50 mg/kg formulated in carboxymethyl cellulose (CMC). A vehicle control was included along with the test compounds. Blood samples were collected by retro-orbital bleed or terminal cardiac bleed into tubes containing heparin just before the final dose and at two hours after the final dose. Animals were sacrificed two hours post-final dose. Tumors were harvested and weighed immediately. Tumors were then snap frozen in liquid nitrogen, pulverized and dissolved in homogenization buffer (chilled acetonitrile/water/formic acid (10:90:0.1 v/v/v) to extract test compounds and kynurenine, KYN.
Plasma and tumor tissue KYN levels were reduced in test compound treated animals compared to control vehicle-treated animals (TABLE 7). For example, compounds 2 and 97 each reduced tumor KYN levels by 81%. At 2 hours post-dosing, the plasma KYN levels were reduced by 62% and 67% respectively in the animals treated with compound 2 or 97 compared to the control animals dosed with vehicle alone. The concentration of test compounds in the tumor tissue extracts is determined by LC/MS/MS using an API 4000 or AP15500 Qtrap mass spectrometer.

[3] = IDO2 Enzyme assay, read-out: IC50 values IDO2
[4] = IDO2 enzyme assay, read-out: IDO2 IC50

Sequence of Human indoleamine 2,3-dioxygenase-2 (hIDO2) (Q6ZQW0 whole entry): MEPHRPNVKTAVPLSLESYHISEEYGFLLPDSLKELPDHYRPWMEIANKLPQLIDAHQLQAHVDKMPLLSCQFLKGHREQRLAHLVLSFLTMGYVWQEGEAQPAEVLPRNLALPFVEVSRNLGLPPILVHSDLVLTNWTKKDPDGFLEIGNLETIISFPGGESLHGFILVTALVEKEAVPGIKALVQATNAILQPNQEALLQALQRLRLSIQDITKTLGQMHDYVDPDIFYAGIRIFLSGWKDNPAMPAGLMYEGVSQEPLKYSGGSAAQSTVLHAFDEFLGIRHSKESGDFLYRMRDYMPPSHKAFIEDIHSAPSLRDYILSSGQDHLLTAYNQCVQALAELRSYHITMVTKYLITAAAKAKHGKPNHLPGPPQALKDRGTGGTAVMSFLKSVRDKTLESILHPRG

For `Nc1oc2cnccc2c1Nc1ccc(F)c(Cl)c1` [Compound 2, N^3-(3-Chloro-4-fluoro-phenyl)-furo[2,3-c]pyridine-2,3-diamine], the IC50 [1, 3] was under 1000 nM, the IC50 [1, 4] was under 1000 nM and the “tumor KYN levels reduced” value [2] was 81%. The “plasma KYN levels reduced” value [2] was 62%.

With `Nc1oc2c(-c3ccncc3)nccc2c1Nc1ccc(F)c(Cl)c1` [Compound 97, N^3-(3-Chloro-4-fluorophenyl)-7-(pyridin-4-yl)furo[2,3-c]pyridine-2,3-diamine] the “tumor KYN levels reduced” value [2] was 81% and the “plasma KYN levels reduced” value [2] was 67%.

In the case of `Nc1oc2c(-c3ccncc3)nccc2c1Nc1ccc(F)c(F)c1` [Compound 184, N^3-(3,4-difluorophenyl)-7-(pyridin-4-yl)furo[2,3-c]pyridine-2,3-diamine], the IC50 [1, 3] is reported as under 1000 nM and the IC50 [1, 4] is reported as under 1000 nM.
